What was measured:
lambsquarters [1] = test: Test Example 4: herbicidal effect by soil treatment (Table 19, symbol O); type: in vivo, lambsquarters (Chenopodium album); settings: amount of applied herbicide 320 g/ha
How it was run: (§1)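 Pre-emergence style soil spray: seeds under ~1.5 cm sterilized diluvial soil received a uniform coat of emulsion diluted to the predetermined herbicide amount. Greenhouse 25–30° C; readout at week three on previously defined criteria.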

oval-leafed pondweed [2] = test: Test Example 2: herbicidal activity, application during weed generation under submerged conditions (Table 17, symbol C); type: in vivo, oval-leafed pondweed (Monochoria vaginalis); settings: AAH 320 g/ha; application during weed generation, submerged conditions
How it was run: (§2)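 Wagner pot, alluvial soil, 4 cm flood; mixed sowing of all species; greenhouse 25° C.–30° C. Emulsifiable formulation, water-diluted to predetermined dose, applied to paddy water at 1–2 leaf stage. Effect rated at 3 wk using the earlier test's scoring criteria.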

Japanese bulrush [3] = test: Test Example 2: herbicidal activity, application during weed generation under submerged conditions (Table 17, symbol B); type: in vivo, Japanese bulrush (Schoenoplectus juncoides); settings: AAH 320 g/ha; application during weed generation, submerged conditions
How it was run: as §2

barnyard grass [4] = test: Test Example 4: herbicidal effect by soil treatment (Table 19, symbol H); type: in vivo, barnyard grass (Echinochloa crus-galli); settings: amount of applied herbicide 320 g/ha
How it was run: as §1

barnyard grass [5] = test: Test Example 3: herbicidal effect by foliage application, Wagner pot (Table 18, symbol H); type: in vivo, barnyard grass (Echinochloa crus-galli)
How it was run: (§3)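 Plants were sown in alluvial soil held under 0.1–0.5 cm standing water and grown 14 days in a greenhouse at 25–30 °C. An emulsifiable formulation, water-diluted to the set dose, was then sprayed onto the foliage, and effects were scored three weeks later using previously defined criteria.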

green foxtail [6] = test: Test Example 5: herbicidal effect by foliage application, plastic box (Table 20, symbol G); type: in vivo, green foxtail (Setaria viridis)
How it was run: (§4)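 Plants were sown into sterilized diluvial soil under about 1.5 cm cover and kept in a greenhouse at 25° C. to 30° C. Fourteen days on, foliage received an even spray of the diluted emulsion. Herbicidal or crop effect was judged three weeks afterwards.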

Chinese sprangletop = test: Test Example 3: herbicidal effect by foliage application, Wagner pot (Table 18, symbol D); type: in vivo, chinese sprangletop (Leptochloa chinensis)
How it was run: as §3

redroot pigweed [7] = test: Test Example 5: herbicidal effect by foliage application, plastic box (Table 20, symbol N); type: in vivo, redroot pigweed (Amaranthus retroflexus)
How it was run: as §4

lambsquarters [8] = test: Test Example 5: herbicidal effect by foliage application, plastic box (Table 20, symbol O); type: in vivo, lambsquarters (Chenopodium album)
How it was run: as §4

southern crabgrass [9] = test: Test Example 5: herbicidal effect by foliage application, plastic box (Table 20, symbol F); type: in vivo, southern crabgrass (Digitaria ciliaris)
How it was run: as §4

green foxtail [10] = test: Test Example 4: herbicidal effect by soil treatment (Table 19, symbol G); type: in vivo, green foxtail (Setaria viridis); settings: amount of applied herbicide 320 g/ha
How it was run: as §1

late watergrass [11] = test: Test Example 1: herbicidal activity, application before weed generation under submerged conditions (Table 16, symbol A); type: in vivo, late watergrass (Echinochloa oryzicola); settings: amount of applied herbicide 320 g/ha
How it was run: (§5)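 Submerged Wagner pots (alluvial soil, 4 cm water) sown with weed seeds and planted with 2.5-leaf rice seedlings; emulsifiable concentrate diluted in water applied to water surface on sowing day. Held in greenhouse at 25-30 °C; injury scored 0-5 by herbicidal rate after three weeks.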

velvetleaf [12] = test: Test Example 4: herbicidal effect by soil treatment (Table 19, symbol M); type: in vivo, velvetleaf (Abutilon theophrasti); settings: amount of applied herbicide 320 g/ha
How it was run: as §1

redroot pigweed [13] = test: Test Example 4: herbicidal effect by soil treatment (Table 19, symbol N); type: in vivo, redroot pigweed (Amaranthus retroflexus); settings: amount of applied herbicide 320 g/ha
How it was run: as §1

rice flat sedge = test: Test Example 3: herbicidal effect by foliage application, Wagner pot (Table 18, symbol E); type: in vivo, rice flat sedge (Cyperus iria)
How it was run: as §3

southern crabgrass [14] = test: Test Example 4: herbicidal effect by soil treatment (Table 19, symbol F); type: in vivo, southern crabgrass (Digitaria ciliaris); settings: amount of applied herbicide 320 g/ha
How it was run: as §1

Japanese bulrush [15] = test: Test Example 1: herbicidal activity, application before weed generation under submerged conditions (Table 16, symbol B); type: in vivo, Japanese bulrush (Schoenoplectus juncoides); settings: amount of applied herbicide 320 g/ha
How it was run: as §5

oval-leafed pondweed [16] = test: Test Example 1: herbicidal activity, application before weed generation under submerged conditions (Table 16, symbol C); type: in vivo, oval-leafed pondweed (Monochoria vaginalis); settings: amount of applied herbicide 320 g/ha
How it was run: as §5

barnyard grass [17] = test: Test Example 5: herbicidal effect by foliage application, plastic box (Table 20, symbol H); type: in vivo, barnyard grass (Echinochloa crus-galli)
How it was run: as §4

velvetleaf [18] = test: Test Example 5: herbicidal effect by foliage application, plastic box (Table 20, symbol M); type: in vivo, velvetleaf (Abutilon theophrasti)
How it was run: as §4

late watergrass [19] = test: Test Example 2: herbicidal activity, application during weed generation under submerged conditions (Table 17, symbol A); type: in vivo, late watergrass (Echinochloa oryzicola); settings: AAH 320 g/ha; application during weed generation, submerged conditions
How it was run: as §2

windgrass = test: Test Example 5: herbicidal effect by foliage application, plastic box (Table 20, symbol L); type: in vivo, windgrass (Apera spica-venti); settings: amount of applied herbicide 320 g/ha; foliage application after 14-day growth; evaluated three weeks after application
How it was run: as §4

blackgrass = test: Test Example 5: herbicidal effect by foliage application, plastic box (Table 20, symbol J); type: in vivo, blackgrass (Alopecurus myosuroides); settings: amount of applied herbicide 320 g/ha; foliage application after 14-day growth; evaluated three weeks after application
How it was run: as §4

wild oat = test: Test Example 5: herbicidal effect by foliage application, plastic box (Table 20, symbol I); type: in vivo, wild oat (Avena fatua); settings: amount of applied herbicide 320 g/ha; foliage application after 14-day growth; evaluated three weeks after application
How it was run: as §4

chickweed = test: Test Example 5: herbicidal effect by foliage application, plastic box (Table 20, symbol P); type: in vivo, common chickweed (Stellaria media); settings: amount of applied herbicide 320 g/ha; foliage application after 14-day growth; evaluated three weeks after application
How it was run: as §4

persian speedwell = test: Test Example 5: herbicidal effect by foliage application, plastic box (Table 20, symbol R); type: in vivo, Persian speedwell (Veronica persica); settings: amount of applied herbicide 320 g/ha; foliage application after 14-day growth; evaluated three weeks after application
How it was run: as §4

[20] = amount of applied herbicide 320 g/ha
[21] = foliage application, 320 g/ha, three weeks after application
[22] = amount of applied herbicide 320 g/ha, foliage application after 14-day growth, evaluated three weeks after application

COCC[S+]([O-])c1ccc(-c2sc3ccc(F)cc3c2-c2c(O)c(C)nn(C)c2=O)cc1 (centres unmarked) [2-454]
herbicidal effect, O: lambsquarters (lambsquarters [1]): 4 (Herbicidal rate of 70% or more and less than 90%) | herbicidal effect rating, C: oval-leafed pondweed (oval-leafed pondweed [2]): 0 (Herbicidal rate of 5% or less (almost no effect)) | herbicidal effect rating, B: Japanese bulrush (Japanese bulrush [3]): 0 (Herbicidal rate of 5% or less (almost no effect)) | herbicidal effect, H: barnyard grass (barnyard grass [4]): 4 (Herbicidal rate of 70% or more and less than 90%) | herbicidal effect on H: barnyard grass (barnyard grass [5]; [20]): 5 (Herbicidal rate of 90% or more (almost completely withered)) | G: green foxtail, herbicidal effect grade (green foxtail [6]; [21]): 5 (Herbicidal rate of 90% or more (almost completely withered)) | herbicidal effect on D: Chinese sprangletop (Chinese sprangletop; [20]): 2 (Herbicidal rate of 20% or more and less than 40%) | N: redroot pigweed, herbicidal effect grade (redroot pigweed [7]; [21]): 5 (Herbicidal rate of 90% or more (almost completely withered)) | O: lambsquarters, herbicidal effect grade (lambsquarters [8]; [21]): 5 (Herbicidal rate of 90% or more (almost completely withered)) | F: southern crabgrass, herbicidal effect grade (southern crabgrass [9]; [21]): 5 (Herbicidal rate of 90% or more (almost completely withered)) | herbicidal effect, G: green foxtail (green foxtail [10]): 5 (Herbicidal rate of 90% or more (almost completely withered)) | Herbicidal effect, A: late watergrass (late watergrass [11]): 3 (Herbicidal rate of 40% or more and less than 70%) | herbicidal effect, M: velvetleaf (velvetleaf [12]): 3 (Herbicidal rate of 40% or more and less than 70%) | herbicidal effect, N: redroot pigweed (redroot pigweed [13]): 5 (Herbicidal rate of 90% or more (almost completely withered)) | herbicidal effect on E: rice flat sedge (rice flat sedge; [20]): 5 (Herbicidal rate of 90% or more (almost completely withered)) | herbicidal effect, F: southern crabgrass (southern crabgrass [14]): 5 (Herbicidal rate of 90% or more (almost completely withered)) | Herbicidal effect, B: Japanese bulrush (Japanese bulrush [15]): 0 (Herbicidal rate of 5% or less (almost no effect)) | Herbicidal effect, C: oval-leafed pondweed (oval-leafed pondweed [16]): 0 (Herbicidal rate of 5% or less (almost no effect)) | H: barnyard grass, herbicidal effect grade (barnyard grass [17]; [21]): 5 (Herbicidal rate of 90% or more (almost completely withered)) | M: velvetleaf, herbicidal effect grade (velvetleaf [18]; [21]): 5 (Herbicidal rate of 90% or more (almost completely withered)) | herbicidal effect rating, A: late watergrass (late watergrass [19]): 2 (Herbicidal rate of 20% or more and less than 40%)

CCCC(=O)Oc1c(C)nn(C)c(=O)c1-c1c(-c2ccc(C(F)(F)F)cc2)sc2cc(F)c(F)cc12 [5-008]
herbicidal effect rating, C: oval-leafed pondweed (oval-leafed pondweed [2]): 0 (Herbicidal rate of 5% or less (almost no effect)) | herbicidal effect rating, B: Japanese bulrush (Japanese bulrush [3]): 0 (Herbicidal rate of 5% or less (almost no effect)) | herbicidal effect on barnyard grass (H) (barnyard grass [5]; 320 g/ha): 4 (Herbicidal rate of 70% or more and less than 90%) | Herbicidal effect by foliage application, G: green foxtail (green foxtail [6]; [22]): 0 (Herbicidal rate of 5% or less (almost no effect)) | Herbicidal effect by foliage application, L: windgrass (windgrass): 1 (Herbicidal rate of 5% or more and less than 20%) | herbicidal effect on Chinese sprangletop (D) (Chinese sprangletop; 320 g/ha): 0 (Herbicidal rate of 5% or less (almost no effect)) | Herbicidal effect by foliage application, N: redroot pigweed (redroot pigweed [7]; [22]): 3 (Herbicidal rate of 40% or more and less than 70%) | Herbicidal effect by foliage application, J: blackgrass (blackgrass): 0 (Herbicidal rate of 5% or less (almost no effect)) | Herbicidal effect by foliage application, O: lambsquarters (lambsquarters [8]; [22]): 3 (Herbicidal rate of 40% or more and less than 70%) | Herbicidal effect by foliage application, F: southern crabgrass (southern crabgrass [9]; [22]): 0 (Herbicidal rate of 5% or less (almost no effect)) | Herbicidal effect, A: late watergrass (late watergrass [11]): 3 (Herbicidal rate of 40% or more and less than 70%) | herbicidal effect on rice flat sedge (E) (rice flat sedge; 320 g/ha): 0 (Herbicidal rate of 5% or less (almost no effect)) | Herbicidal effect, B: Japanese bulrush (Japanese bulrush [15]): 0 (Herbicidal rate of 5% or less (almost no effect)) | Herbicidal effect by foliage application, I: wild oat (wild oat): 0 (Herbicidal rate of 5% or less (almost no effect)) | Herbicidal effect, C: oval-leafed pondweed (oval-leafed pondweed [16]): 0 (Herbicidal rate of 5% or less (almost no effect)) | Herbicidal effect by foliage application, P: chickweed (chickweed): 4 (Herbicidal rate of 70% or more and less than 90%) | Herbicidal effect by foliage application, H: barnyard grass (barnyard grass [17]; [22]): 0 (Herbicidal rate of 5% or less (almost no effect)) | Herbicidal effect by foliage application, R: persian speedwell (persian speedwell): 3 (Herbicidal rate of 40% or more and less than 70%) | Herbicidal effect by foliage application, M: velvetleaf (velvetleaf [18]; [22]): 0 (Herbicidal rate of 5% or less (almost no effect)) | herbicidal effect rating, A: late watergrass (late watergrass [19]): 2 (Herbicidal rate of 20% or more and less than 40%)

From patent US20230085307A1, “PYRIDAZINONE COMPOUND AND HERBICIDE” (NISSAN CHEMICAL CORPORATION, priority 2019, published 2023)
